Experiments:
[1] = biological target: T1, APOL1 G2 (Homo sapiens, UniProt O14791, DEL388-389); assay: APOL1-mediated calcium transport (calcium influx) assay, HEK T-REx/GCaMP6f/APOL1 G2 K6.3 cells, FLIPR TETRA; assay type: cell-based; conditions: prevention of calcium influx; geometric mean of at least 2 assay runs; † = average of a technical replicate from a single assay run
T1 construct: expressed in transfected cells; host or cells: HEK293 T-REx clonal line stably expressing GCaMP6f (HEK T-REx/GCaMP6f/APOL1 G2 K6.3), doxycycline induced
T1 sequence (O14791 with tags, fused parts or gaps DEL388-389): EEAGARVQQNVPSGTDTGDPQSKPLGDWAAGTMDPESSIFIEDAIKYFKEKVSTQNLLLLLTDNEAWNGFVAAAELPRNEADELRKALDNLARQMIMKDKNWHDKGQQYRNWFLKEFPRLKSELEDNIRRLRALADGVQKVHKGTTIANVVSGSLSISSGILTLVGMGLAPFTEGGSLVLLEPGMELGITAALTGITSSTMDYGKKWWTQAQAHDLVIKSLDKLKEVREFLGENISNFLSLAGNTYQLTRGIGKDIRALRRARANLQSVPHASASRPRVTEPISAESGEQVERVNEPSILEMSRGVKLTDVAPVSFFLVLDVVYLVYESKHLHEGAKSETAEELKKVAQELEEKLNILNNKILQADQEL
How it was run: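 A HEK293 T-REx clone stably expressing GCaMP6f had APOL1 G2 induced with doxycycline (20 ng/mL solution added) for 6 h. Cells were then washed into Ca2+-free Tyrode's buffer (pH 7.4) and preincubated with compounds (duplicate 8-point) for 10 min at room temperature. Ca2+ injection to 5 mM final produced FLIPR GCaMP fluorescence, giving AC50 for influx inhibition (geometric mean, ≥2 runs).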

[2] = test system: HEK293 clonal cell line overexpressing APOL1 G1; assay: APOL1 G1 HEK293 cell rescue assay (Example B3); assay type: cell-based; conditions: Homo sapiens, HEK293, HEK293 clonal line overexpressing APOL1 G1; geometric mean of at least 2 runs; † = single run; ¥ = concentration at 50% rescue estimated (no sigmoidal curve)
How it was run: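 HEK293 clonal line overexpressing APOL1 G1; EC50 is half-maximal reversal of APOL1-induced cell death. Values are the geometric mean of ≥2 runs on separate days, each run the average of duplicate wells. Where no sigmoidal curve could be fitted, the concentration giving 50% rescue was estimated.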

Row | Compound | AC50 [1] | EC50 [2]
1 | O=C1CCc2cc(OCCN3CCC4(CC3)C(=O)Nc3ccc(Cl)cc34)ccc2N1 [Compound 82, 5-chloro-1′-{2-[(2-oxo-1,2,3,4-tetrahydroquinolin-6-yl)oxy]ethyl}-1,2-dihydrospiro[indole-3,4′-piperidin]-2-one] | 1050 nM | 252 nM
2 | CS(=O)(=O)C1(c2c(F)cc(OCCN3CCC4(CC3)C(=O)Nc3ccc(C#N)cc34)cc2F)COC1 [Compound 84, 1′-{2-[3,5-difluoro-4-(3-methanesulfonyloxetan-3-yl)phenoxy]ethyl}-2-oxo-1,2-dihydrospiro[indole-3,4′-piperidine]-5-carbonitrile] | 1450 nM | 233 nM
3 | O=C1Nc2ccc(Cl)cc2C12CCN(CCOc1ccc3c(cnn3[C@H]3C[C@@H](O)C3)c1)CC2 [Compound 85, 5-chloro-1′-[2-({1-[(cis)-3-hydroxycyclobutyl]-1H-indazol-5-yl}oxy)ethyl]-1,2-dihydrospiro[indole-3,4′-piperidin]-2-one] | 564 nM | 157 nM
4 | O=C1Nc2ccc(Cl)cc2C12CCN(CCOc1ccc3c(cnn3[C@H]3C[C@H](O)C3)c1)CC2 [Compound 86, 5-chloro-1′-[2-({1-[(trans)-3-hydroxycyclobutyl]-1H-indazol-5-yl}oxy)ethyl]-1,2-dihydrospiro[indole-3,4′-piperidin]-2-one] | 539 nM | 126 nM
5 | O=C1Nc2ccc(Cl)cc2C12CCN(CCOc1ccc3[nH]ncc3c1)CC2 [Compound 87, 5-chloro-1′-[2-(2H-indazol-5-yloxy)ethyl]-1,2-dihydrospiro[indole-3,4′-piperidin]-2-one] | 375 nM | 281 nM
6 | Cn1c(=O)[nH]c2cc(OCCN3CCC4(CC3)C(=O)Nc3ccc(Cl)cc34)ccc21 [Compound 88, 5-chloro-1′-{2-[(1-methyl-2-oxo-2,3-dihydro-1H-1,3-benzodiazol-5-yl)oxy]ethyl}-1,2-dihydrospiro[indole-3,4′-piperidin]-2-one] | 698 nM | 438 nM
7 | CS(=O)(=O)c1c(F)cc(OCCN2CCC3(CC2)C(=O)Nc2ccc(Cl)cc23)cc1F [Compound 89, 5-chloro-1′-[2-(3,5-difluoro-4-methanesulfonylphenoxy)ethyl]-1,2-dihydrospiro[indole-3,4′-piperidin]-2-one] | 463 nM | 138 nM
8 | CS(=O)(=O)c1c(F)cc(OCCN2CCC3(CC2)C(=O)Nc2ccc(C#N)cc23)cc1F [Compound 90, 1′-[2-(3,5-difluoro-4-methanesulfonylphenoxy)ethyl]-2-oxo-1,2-dihydrospiro[indole-3,4′-piperidine]-5-carbonitrile] | 973 nM | 594 nM
9 | COC(=O)C1(S(=O)(=O)c2ccc(OCCN3CCC4(CC3)C(=O)Nc3ccc(Cl)cc34)cc2)CC1 [Compound 91, methyl 1-[4-(2-{5-chloro-2-oxo-1,2-dihydrospiro[indole-3,4′-piperidin]-1′-yl}ethoxy)benzenesulfonyl]cyclopropane-1-carboxylate] | 739 nM | 99 nM
10 | CC1(S(=O)(=O)c2ccc(OCCN3CCC4(CC3)C(=O)Nc3ccc(Cl)cc34)cc2)COC1 [Compound 92, 5-chloro-1′-(2-{4-[(3-methyloxetan-3-yl)sulfonyl]phenoxy}ethyl)-1,2-dihydrospiro[indole-3,4′-piperidin]-2-one] | 761 nM | 101 nM
11 | CC1(S(=O)(=O)c2ccc(OCCN3CCC4(CC3)C(=O)Nc3ccc(C#N)cc34)cc2)COC1 [Compound 93, 1′-(2-{4-[(3-methyloxetan-3-yl)sulfonyl]phenoxy}ethyl)-2-oxo-1,2-dihydrospiro[indole-3,4′-piperidine]-5-carbonitrile] | 951 nM | 230 nM
12 | CS(=O)(=O)N1CCc2cc(OCCN3CCC4(CC3)C(=O)Nc3ccc(Cl)cc34)ccc2C1 [Compound 94, 5-chloro-1′-{2-[(2-methanesulfonyl-1,2,3,4-tetrahydroisoquinolin-6-yl)oxy]ethyl}-1,2-dihydrospiro[indole-3,4′-piperidin]-2-one] | 794 nM | 210 nM
13 | CN1C(=O)CCc2cc(OCCN3CCC4(CC3)C(=O)Nc3ccc(C#N)cc34)ccc21 [Compound 95, 1′-{2-[(1-methyl-2-oxo-1,2,3,4-tetrahydroquinolin-6-yl)oxy]ethyl}-2-oxo-1,2-dihydrospiro[indole-3,4′-piperidine]-5-carbonitrile] | 655 nM | 457 nM
14 | CC(C)N1C(=O)CCc2cc(OCCN3CCC4(CC3)C(=O)Nc3ccc(C#N)cc34)ccc21 [Compound 96, 2-oxo-1′-(2-{[2-oxo-1-(propan-2-yl)-1,2,3,4-tetrahydroquinolin-6-yl]oxy}ethyl)-1,2-dihydrospiro[indole-3,4′-piperidine]-5-carbonitrile] | 552 nM | 148 nM
15 | CC(C)N1C(=O)CCc2cc(OCCN3CCC4(CC3)C(=O)Nc3ccc(Cl)cc34)ccc21 [Compound 97, 5-chloro-1′-(2-{[2-oxo-1-(propan-2-yl)-1,2,3,4-tetrahydroquinolin-6-yl]oxy}ethyl)-1,2-dihydrospiro[indole-3,4′-piperidin]-2-one] | 823 nM | 143 nM
16 | CS(=O)(=O)N(CCO)c1ccc(OCCN2CCC3(CC2)C(=O)Nc2ccc(Cl)cc23)cc1 [Compound 98, N-[4-(2-{5-chloro-2-oxo-1,2-dihydrospiro[indole-3,4′-piperidin]-1′-yl}ethoxy)phenyl]-N-(2-hydroxyethyl)methanesulfonamide] | 600 nM | 183 nM

Reference: patent US12344610B2, “APOL1 inhibitors and methods of use” (Maze Therapeutics, Inc., priority 2022, dated 2025)
